Laboratory results from PubChem BioAssay AID290 (DTP/NCI, 2004).
“And” between values parts separate entries of the source, which are not always exact repeats. Equal entries are not always repeated. Results filed as inconclusive are left out.

System: mice, P1798 lymphosarcoma sc, survival or tumor weight T/C
Experiment: NCI In Vivo Anticancer Drug Screen. Data for tumor model P1798 Lymphosarcoma (subcutaneous) in unknown mice
Details: endpoint: mean tumor weight, higher = larger tumour
Description: The antitumor activity of compounds was measured in mice bearing transplantable tumors. Survival or tumor size were measured and the results are expressed as the measurement made in the treated group (T) divided by the measurement made in the vehicle treated control group (C). The tumor model used in this assay is P1798 Lymphosarcoma (subcutaneous) in unknown mice

[1] = dose: 25.0 mg/kg/injection, schedule: Q01DX010 (ip), vehicle: saline
[2] = dose: 50.0 mg/kg/injection, schedule: Q01DX010 (ip), vehicle: saline
[3] = dose: 100.0 mg/kg/injection, schedule: Q01DX010 (ip), vehicle: saline

Question: CC[C@]1(O)C[C@H]2CN(CCc3c([nH]c4ccccc34)[C@@](C(=O)OC)(c3cc4c(cc3OC)N(C=O)[C@H]3[C@@](O)(C(=O)OC)[C@H](OC(C)=O)[C@]5(CC)C=CCN6CC[C@]43[C@@H]65)C2)C1 was tested. Which T/C (dose: 0.01 mg/kg/injection, schedule: Q01DX010 (ip), vehicle: water) did it give?
Answer: 105 % of control

Question: What about the T/C (dose: 0.03 mg/kg/injection, schedule: Q01DX010 (ip), vehicle: water) of the same molecule?
Answer: 105 % of control

Question: And the T/C (dose: 0.1 mg/kg/injection, schedule: Q01DX001 (ip), vehicle: saline)?
Answer: 120 % of control

Question: What about the T/C (dose: 0.3 mg/kg/injection, schedule: Q01DX001 (ip), vehicle: saline) of the same molecule?
Answer: 45 % of control

Question: And the T/C (dose: 0.5 mg/kg/injection, schedule: Q01DX001 (ip), vehicle: saline)?
Answer: 40 % of control

Question: And the T/C (dose: 0.68 mg/kg/injection, schedule: Q01DX001 (ip), vehicle: saline)?
Answer: 10 % of control

Question: What about the T/C (dose: 0.7 mg/kg/injection, schedule: Q01DX001 (ip), vehicle: saline) of the same molecule?
Answer: 36 % of control

Question: What about the T/C (dose: 1.35 mg/kg/injection, schedule: Q01DX001 (ip), vehicle: saline) of the same molecule?
Answer: 3 % of control

Question: And the T/C (dose: 125.0 micrograms/kg/injection, schedule: Q01DX010 (ip), vehicle: water)?
Answer: 16 % of control

Question: How did the T/C (dose: 12.5 mg/kg/injection, schedule: Q01DX010 (ip), vehicle: water) turn out when O=C(Nc1ccc(C2=NCCN2)cc1)c1ccc(C(=O)Nc2ccc(C3=NCCN3)cc2)c(Cl)c1 was run?
Answer: 70 % of control

Question: And the T/C (dose: 14.0 mg/kg/injection, schedule: Q01DX011 (ip), vehicle: carboxymethylcellulose (CMC))?
Answer: 7 % of control

Question: And the T/C (dose: 28.0 mg/kg/injection, schedule: Q01DX001 (ip), vehicle: carboxymethylcellulose (CMC))?
Answer: 80 % of control

Question: And the T/C (dose: 55.0 mg/kg/injection, schedule: Q01DX001 (ip), vehicle: carboxymethylcellulose (CMC))?
Answer: 33 % of control

Question: Which results are given for CCCSc1ncnc2nc[nH]c12?
Answer: T/C (dose: 31.0 mg/kg/injection, schedule: Q01DX010 (ip), vehicle: carboxymethylcellulose (CMC)): 84 % of control; T/C (dose: 62.0 mg/kg/injection, schedule: Q01DX010 (ip), vehicle: carboxymethylcellulose (CMC)): 70 % of control; T/C (dose: 125.0 mg/kg/injection, schedule: Q01DX010 (ip), vehicle: carboxymethylcellulose (CMC)): 51 % of control and 52 % of control

Question: Which results are given for Nc1ncnc2[nH]ncc12?
Answer: T/C (dose: 6.25 mg/kg/injection, schedule: Q01DX010 (ip), vehicle: carboxymethylcellulose (CMC)): 73 % of control; T/C (dose: 12.5 mg/kg/injection, schedule: Q01DX010 (ip), vehicle: carboxymethylcellulose (CMC)): 64 % of control

Question: Which results are given for O=[n+]1c2c(n([O-])c3ccccc31)-c1cccc3cccc-2c13?
Answer: T/C [1]: 84 % of control; T/C [2]: 37 % of control; T/C [3]: 36 % of control; T/C (dose: 200.0 mg/kg/injection, schedule: Q01DX010 (ip), vehicle: saline): 19 % of control

Question: Which T/C (dose: 75.0 mg/kg/injection, schedule: Q01DX015 (ip), vehicle: carboxymethylcellulose (CMC)) does the source give for CN(C)/N=N/c1nc[nH]c1C(N)=O here?
Answer: 73 % of control

Question: What about the T/C (dose: 100.0 mg/kg/injection, schedule: Q01DX015 (ip), vehicle: carboxymethylcellulose (CMC)) of the same molecule?
Answer: 69 % of control

Question: What about the T/C (dose: 125.0 mg/kg/injection, schedule: Q01DX015 (ip), vehicle: carboxymethylcellulose (CMC)) of the same molecule?
Answer: 57 % of control

Question: What about the T/C (dose: 150.0 mg/kg/injection, schedule: Q01DX015 (ip), vehicle: carboxymethylcellulose (CMC)) of the same molecule?
Answer: 52 % of control

Question: For Cn1c(O)c(N=NC(N)=S)c2ccccc21, which T/C (dose: 25.0 mg/kg/injection, schedule: Q01DX011 (ip), vehicle: carboxymethylcellulose (CMC)) is on record?
Answer: 206 % of control

Question: What about the T/C (dose: 50.0 mg/kg/injection, schedule: Q01DX011 (ip), vehicle: carboxymethylcellulose (CMC)) of the same molecule?
Answer: 117 % of control

Question: And the T/C (dose: 100.0 mg/kg/injection, schedule: Q01DX011 (ip), vehicle: carboxymethylcellulose (CMC))?
Answer: 87 % of control

Question: What does the source list for O=C(Nc1ccc(C2=NCCN2)cc1)c1ccc(C(=O)Nc2ccc(C3=NCCN3)cc2)cc1?
Answer: T/C (dose: 8.0 mg/kg/injection, schedule: Q01DX010 (ip), vehicle: saline): 67 % of control; T/C (dose: 16.0 mg/kg/injection, schedule: Q01DX010 (ip), vehicle: saline): 65 % of control; T/C (dose: 32.0 mg/kg/injection, schedule: Q01DX010 (ip), vehicle: saline): 109 % of control; T/C (dose: 64.0 mg/kg/injection, schedule: Q01DX010 (ip), vehicle: saline): 49 % of control

Question: With C[C@H]1C(=O)O[C@@H]2CCN3CC=C(COC(=O)[C@](C)(O)[C@@]1(C)O)[C@H]23 as the molecule, how does the T/C (dose: 3.75 mg/kg/injection, schedule: Q01DX010 (ip), vehicle: carboxymethylcellulose (CMC)) read?
Answer: 73 % of control

Question: And the T/C (dose: 7.5 mg/kg/injection, schedule: Q01DX010 (ip), vehicle: carboxymethylcellulose (CMC))?
Answer: 68 % of control

Question: And the T/C (dose: 15.0 mg/kg/injection, schedule: Q01DX010 (ip), vehicle: carboxymethylcellulose (CMC))?
Answer: 44 % of control

Question: What about the T/C (dose: 30.0 mg/kg/injection, schedule: Q01DX010 (ip), vehicle: carboxymethylcellulose (CMC)) of the same molecule?
Answer: 23 % of control

Question: Which results are given for CC(=O)[C@H]1CC[C@H]2[C@@H]3C[C@H](C)C4=CC(=O)CC[C@]4(C)[C@H]3C(=O)C[C@]12C?
Answer: T/C (dose: 12.5 mg/kg/injection, schedule: Q01DX010 (sc), vehicle: carboxymethylcellulose (CMC)): 101 % of control; T/C (dose: 25.0 mg/kg/injection, schedule: Q01DX010 (sc), vehicle: carboxymethylcellulose (CMC)): 100 % of control; T/C (dose: 50.0 mg/kg/injection, schedule: Q01DX010 (sc), vehicle: carboxymethylcellulose (CMC)): 115 % of control; T/C (dose: 100.0 mg/kg/injection, schedule: Q01DX010 (sc), vehicle: carboxymethylcellulose (CMC)): 112 % of control; T/C (dose: 200.0 mg/kg/injection, schedule: Q01DX010 (sc), vehicle: carboxymethylcellulose (CMC)): 117 % of control; T/C (dose: 400.0 mg/kg/injection, schedule: Q01DX010 (sc), vehicle: carboxymethylcellulose (CMC)): 108 % of control

Question: Which results are given for N=C(N)SCc1c2ccccc2c(CSC(=N)N)c2ccccc12?
Answer: T/C (dose: 2.5 mg/kg/injection, schedule: Q01DX011 (ip), vehicle: carboxymethylcellulose (CMC)): 85 % of control; T/C (dose: 5.0 mg/kg/injection, schedule: Q01DX011 (ip), vehicle: carboxymethylcellulose (CMC)): 99 % of control; T/C (dose: 10.0 mg/kg/injection, schedule: Q01DX011 (ip), vehicle: carboxymethylcellulose (CMC)): 50 % of control; T/C (dose: 20.0 mg/kg/injection, schedule: Q01DX011 (ip), vehicle: carboxymethylcellulose (CMC)): 40 % of control

Question: For COS(C)(=O)=O, which T/C (dose: 12.5 mg/kg/injection, schedule: Q01DX010 (ip), vehicle: saline) is on record?
Answer: 98 % of control

Question: What about the T/C [1] of the same molecule?
Answer: 80 % of control

Question: And the T/C [2]?
Answer: 81 % of control

Question: And the T/C [3]?
Answer: 57 % of control
